Source: PubChem BioAssay (NCI)
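Five concentrations, 48 hours, 96-well plates. Definition used: TGI = concentration required for complete inhibition of growth.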

Assays:
Experiment in all cases: DTP human tumour cell line panel, 48 h
786-0 renal = system: 786-0 renal
A498 renal = system: A498 renal
A549 NSCLC = system: A549 NSCLC
ACHN renal = system: ACHN renal
BT-549 breast = system: BT-549 breast
CAKI-1 renal = system: CAKI-1 renal
CCRF-CEM leukemia = system: CCRF-CEM leukemia
COLO 205 colon = system: COLO 205 colon
DU-145 prostate = system: DU-145 prostate
EKVX NSCLC = system: EKVX NSCLC
HCC-2998 colon = system: HCC-2998 colon
HCT-116 colon = system: HCT-116 colon
HCT-15 colon = system: HCT-15 colon
HL-60(TB) leukemia = system: HL-60(TB) leukemia
HOP-62 NSCLC = system: HOP-62 NSCLC
HS 578T breast = system: HS 578T breast
HT29 colon = system: HT29 colon
IGROV1 ovarian = system: IGROV1 ovarian
K-562 leukemia = system: K-562 leukemia
KM12 colon = system: KM12 colon
LOX IMVI melanoma = system: LOX IMVI melanoma
M14 melanoma = system: M14 melanoma
MALME-3M melanoma = system: MALME-3M melanoma
MCF7 breast = system: MCF7 breast
MDA-MB-231 breast = system: MDA-MB-231 breast
MDA-MB-435 = system: MDA-MB-435
MDA-N = system: MDA-N
MOLT-4 leukemia = system: MOLT-4 leukemia
NCI-H226 lung = system: NCI-H226 lung
NCI-H23 lung = system: NCI-H23 lung
NCI-H460 lung = system: NCI-H460 lung
NCI-H522 lung = system: NCI-H522 lung
NCI/ADR-RES ovarian = system: NCI/ADR-RES ovarian
OVCAR-3 ovarian = system: OVCAR-3 ovarian
OVCAR-4 ovarian = system: OVCAR-4 ovarian
OVCAR-5 ovarian = system: OVCAR-5 ovarian
OVCAR-8 ovarian = system: OVCAR-8 ovarian
PC-3 prostate = system: PC-3 prostate
RPMI-8226 leukemia = system: RPMI-8226 leukemia
SF-268 CNS = system: SF-268 CNS
SF-295 CNS = system: SF-295 CNS
SF-539 CNS = system: SF-539 CNS
SK-MEL-2 melanoma = system: SK-MEL-2 melanoma
SK-MEL-28 melanoma = system: SK-MEL-28 melanoma
SK-MEL-5 melanoma = system: SK-MEL-5 melanoma
SK-OV-3 ovarian = system: SK-OV-3 ovarian
SN12C renal = system: SN12C renal
SNB-19 CNS = system: SNB-19 CNS
SNB-75 CNS = system: SNB-75 CNS
SR leukemia = system: SR leukemia
SW-620 colon = system: SW-620 colon
T-47D breast = system: T-47D breast
TK-10 renal = system: TK-10 renal
U251 CNS = system: U251 CNS
UACC-257 melanoma = system: UACC-257 melanoma
UACC-62 melanoma = system: UACC-62 melanoma
UO-31 renal = system: UO-31 renal
HOP-92 NSCLC = system: HOP-92 NSCLC
RXF 393 renal = system: RXF 393 renal

Measured: TGI

COC(=O)C1Cc2ccc(C)cc2C1=O (configuration not stated)
> 100 µM: 786-0 renal | A498 renal | A549 NSCLC | ACHN renal | BT-549 breast | CAKI-1 renal | CCRF-CEM leukemia | COLO 205 colon | DU-145 prostate | EKVX NSCLC | HCC-2998 colon | HCT-116 colon | HCT-15 colon | HL-60(TB) leukemia | HOP-62 NSCLC | HS 578T breast | HT29 colon | IGROV1 ovarian | K-562 leukemia | KM12 colon | LOX IMVI melanoma | M14 melanoma | MALME-3M melanoma | MCF7 breast | MDA-MB-231 breast | MDA-MB-435 | MDA-N | MOLT-4 leukemia | NCI-H226 lung | NCI-H23 lung | NCI-H460 lung | NCI-H522 lung | NCI/ADR-RES ovarian | OVCAR-3 ovarian | OVCAR-4 ovarian | OVCAR-5 ovarian | OVCAR-8 ovarian | PC-3 prostate | RPMI-8226 leukemia | SF-268 CNS | SF-295 CNS | SF-539 CNS | SK-MEL-2 melanoma | SK-MEL-28 melanoma | SK-MEL-5 melanoma | SK-OV-3 ovarian | SN12C renal | SNB-19 CNS | SNB-75 CNS | SR leukemia | SW-620 colon | T-47D breast | TK-10 renal | U251 CNS | UACC-257 melanoma | UACC-62 melanoma | UO-31 renal

N#C/C(=C1\N=C(c2ccccc2O)Oc2ccccc21)c1ccc([N+](=O)[O-])cc1
> 100 µM: 786-0 renal | A498 renal | A549 NSCLC | ACHN renal | BT-549 breast | CAKI-1 renal | CCRF-CEM leukemia | COLO 205 colon | DU-145 prostate | EKVX NSCLC | HCC-2998 colon | HCT-116 colon | HCT-15 colon | HL-60(TB) leukemia | HOP-62 NSCLC | HOP-92 NSCLC | HS 578T breast | HT29 colon | IGROV1 ovarian | K-562 leukemia | KM12 colon | LOX IMVI melanoma | M14 melanoma | MALME-3M melanoma | MCF7 breast | MDA-MB-231 breast | MDA-MB-435 | MDA-N | MOLT-4 leukemia | NCI-H226 lung | NCI-H23 lung | NCI-H460 lung | NCI/ADR-RES ovarian | OVCAR-3 ovarian | OVCAR-4 ovarian | OVCAR-5 ovarian | OVCAR-8 ovarian | PC-3 prostate | RPMI-8226 leukemia | RXF 393 renal | SF-268 CNS | SF-295 CNS | SF-539 CNS | SK-MEL-2 melanoma | SK-MEL-28 melanoma | SK-MEL-5 melanoma | SK-OV-3 ovarian | SN12C renal | SNB-19 CNS | SNB-75 CNS | SW-620 colon | T-47D breast | TK-10 renal | U251 CNS | UACC-257 melanoma | UACC-62 melanoma | UO-31 renal

O=C(O)CCC(NC(=O)c1ccc(Nc2nc3ccccc3nc2C(=O)O)cc1)C(=O)O (configuration not stated)
> 100 µM: 786-0 renal | A549 NSCLC | ACHN renal | BT-549 breast | CAKI-1 renal | CCRF-CEM leukemia | COLO 205 colon | DU-145 prostate | EKVX NSCLC | HCC-2998 colon | HCT-116 colon | HL-60(TB) leukemia | HOP-62 NSCLC | HOP-92 NSCLC | HS 578T breast | HT29 colon | IGROV1 ovarian | K-562 leukemia | KM12 colon | M14 melanoma | MALME-3M melanoma | MCF7 breast | MDA-MB-231 breast | MDA-MB-435 | MDA-N | MOLT-4 leukemia | NCI-H23 lung | NCI-H522 lung | NCI/ADR-RES ovarian | OVCAR-3 ovarian | OVCAR-4 ovarian | OVCAR-5 ovarian | OVCAR-8 ovarian | RPMI-8226 leukemia | SF-268 CNS | SF-295 CNS | SF-539 CNS | SK-MEL-2 melanoma | SK-MEL-28 melanoma | SK-MEL-5 melanoma | SK-OV-3 ovarian | SN12C renal | SNB-19 CNS | SNB-75 CNS | SR leukemia | T-47D breast | TK-10 renal | U251 CNS | UACC-257 melanoma | UACC-62 melanoma | UO-31 renal

N#Cc1ncn(-c2ccccc2)c1N
> 100 µM: 786-0 renal | A498 renal | A549 NSCLC | ACHN renal | BT-549 breast | CAKI-1 renal | CCRF-CEM leukemia | COLO 205 colon | DU-145 prostate | EKVX NSCLC | HCC-2998 colon | HCT-116 colon | HCT-15 colon | HL-60(TB) leukemia | HOP-62 NSCLC | HS 578T breast | HT29 colon | IGROV1 ovarian | K-562 leukemia | KM12 colon | LOX IMVI melanoma | M14 melanoma | MALME-3M melanoma | MCF7 breast | MDA-MB-231 breast | MDA-MB-435 | MDA-N | MOLT-4 leukemia | NCI-H226 lung | NCI-H23 lung | NCI-H460 lung | NCI-H522 lung | NCI/ADR-RES ovarian | OVCAR-3 ovarian | OVCAR-4 ovarian | OVCAR-5 ovarian | OVCAR-8 ovarian | PC-3 prostate | RPMI-8226 leukemia | SF-268 CNS | SF-295 CNS | SF-539 CNS | SK-MEL-2 melanoma | SK-MEL-28 melanoma | SK-MEL-5 melanoma | SK-OV-3 ovarian | SN12C renal | SNB-19 CNS | SNB-75 CNS | SR leukemia | SW-620 colon | T-47D breast | TK-10 renal | U251 CNS | UACC-257 melanoma | UACC-62 melanoma | UO-31 renal
